In the supplement of paper PMC10307832:

Experiments:
Assay in all cases: relative viability (nuclei count vs DMSO), 5 days (fraction); higher = more cells survive
[1] = compound: CS(=O)(=O)CCNCc1ccc(-c2ccc3ncnc(Nc4ccc(OCc5cccc(F)c5)c(Cl)c4)c3c2)o1 [Lapatinib] + C[C@]1(O)C[C@@H](c2nc(-c3ccc4ccc(-c5ccccc5)nc4c3)c3c(N)nccn32)C1 [Linsitinib] (partner 1 µM)
How it was run: (§1)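 Lung cancer cell lines in 1536-well plates got either a single drug or a fixed anchor-drug dose together with five library-drug doses (not always all listed) in √10 steps, by pin tool, on the day after seeding. Nuclei were counted after 5 days, and relative viability is the treated-to-vehicle ratio of nuclei counts. Values are medians of duplicate plates.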

[2] = compound: CC1=NC=CC(=C1)C2=CC=C(C=C2)CC(=O)NC3=CC=C(C=C3)C4=CN=CC=C4 [Wnt-C59] + N=C(N)NC(=N)NCCc1ccccc1 [Phenformin] (partner 250 µM)
How it was run: as §1

[3] = compound: CS(=O)(=O)CCNCc1ccc(-c2ccc3ncnc(Nc4ccc(OCc5cccc(F)c5)c(Cl)c4)c3c2)o1 [Lapatinib] + CC(=O)c1c(C)c2cnc(Nc3ccc(N4CCNCC4)cn3)nc2n(C2CCCC2)c1=O [Palbociclib] (partner 0.5 µM)
How it was run: as §1

[4] = compound: CS(=O)(=O)CCNCc1ccc(-c2ccc3ncnc(Nc4ccc(OCc5cccc(F)c5)c(Cl)c4)c3c2)o1 [Lapatinib] + COc1cccc2cc(-c3nc([C@H]4CC[C@H](C(=O)O)CC4)n4ncnc(N)c34)[nH]c12 [OSI-027] (partner 0.5 µM)
How it was run: as §1

Cell Line	relative viability ([1]; first compound 0.02 µM)	relative viability ([1]; first compound 0.06325 µM)	relative viability ([1]; first compound 0.2 µM)	relative viability ([1]; first compound 0.6325 µM)	relative viability ([1]; first compound 2 µM)	relative viability ([2]; first compound 0.001 µM)	relative viability ([2]; first compound 0.01 µM)	relative viability ([2]; first compound 0.03162 µM)	relative viability ([2]; first compound 0.1 µM)	relative viability ([3]; first compound 0.06325 µM)	relative viability ([3]; first compound 0.2 µM)	relative viability ([3]; first compound 0.6325 µM)	relative viability ([3]; first compound 2 µM)	relative viability ([4]; first compound 0.02 µM)	relative viability ([4]; first compound 0.06325 µM)	relative viability ([4]; first compound 0.2 µM)	relative viability ([4]; first compound 0.6325 µM)	relative viability ([4]; first compound 2 µM)	relative viability ([3]; first compound 0.02 µM)
EKVX	0.922	0.757	0.956	0.579	0.179	0.225	0.216	0.216	0.241	0.337	0.265	0.22	0.145	0.594	0.502	0.575	0.58	0.325	
NCI-H596	1.11	1.02	1.09	1.19	0.839	0.746	0.71	0.923	0.722						0.52	0.566	0.671	0.416	
NCI-H1975	0.843	0.927	0.954	0.853	0.694	0.396	0.393	0.395	0.406	0.492	0.518	0.575	0.311	0.699	0.472	0.494	0.568	0.446	0.285
A549		0.433	0.555	0.473	0.425	0.213	0.144	0.253	0.169										
HCC-78		0.383	0.461	0.441	0.448	0.548	0.685	0.701	0.72	0.453	0.49	0.467	0.506		0.324	0.315	0.381	0.344	
NCI-H1650						0.449	0.483	0.454	0.391	0.314	0.379	0.3	0.299	0.437	0.456	0.59	0.555	0.338	0.315
NCI-H1648										0.222	0.294	0.285	0.252	0.266	0.306	0.289	0.288	0.268	
SW 900						0.633	0.607	0.555	0.574	0.514	0.554	0.586	0.43		0.576	0.532	0.496	0.488	
NCI-H2342						0.616	0.63	0.756	0.746	0.491	0.501	0.553	0.484	0.552	0.503	0.506	0.562	0.55	0.504
NCI-H1623						0.582	0.562	0.607	0.572					0.377	0.367	0.407	0.387	0.246	
NCI-H2170						0.436	0.395	0.405	0.443	0.313	0.271	0.277	0.136	0.459	0.459	0.64	0.41	0.245	0.376
NCI-H1299	0.973	0.923	0.98	1	1.05														
ChaGo-K-1						0.557	0.466	0.531	0.539	0.9	0.939	0.909	0.912	0.341	0.391	0.585	0.53	0.462	0.868
